Test results reported in patent US20260356804A1, “SODIUM CHANNEL BLOCKING COMPOUNDS, DERIVATIVES THEREOF, AND METHODS OF THEIR USE” (LATIGO BIOTHERAPEUTICS, INC., priority 2022, published 2026).

The compounds below were run against T1, human Nav1.8/β1 (Homo sapiens, UniProt Q9Y5Y9) (assay: Compound Profiling Human NaV1.8/β1 Cell Line—Sophion QPatch II Assay (automated patch clamp, stably transfected HEK293 cells)). Settings: not given.
T1 construct: host or cells: HEK293
Assay type: cell-based
Method: Compounds were tested on recombinant human Nav1.8/β1 stably transfected HEK293 (Eurofins, CYL3025, St. Charles, MO) cells using the QPatch II system (Sophion Bioscience A/S, Ballerup—Denmark), an automated patch clamp device. Cells were cultured at 37° C./5% CO2 in DMEM/F-12 supplemented with 10% fetal bovine serum, 1× Non-Essential Amino Acids, and selection antibiotics (0.625 μg/mL Puromycin, 400 μg/mL Geneticin, and 100 μg/mL Hygromycin). One or two days prior to recording, cells were moved to a lower temperature 30° C./5% CO2 incubator to increase surface expression of the channels. On the day of the recordings, cells in culture dishes were washed twice with Ca^2+—Mg^2+ free DPBS and treated with Detachin (Genlantis, San Diego) for 3 minutes and then resuspended in Serum Free Medium (EX-CELL® ACF CHO Medium for Cell Culture (Sigma-Aldrich) supplemented with 0.04 mg/mL soybean trypsin Inhibitor and 25 mM HEPES (all components supplied by Sigma-Aldrich, St. Louis, MO) and allowed to recover for a minimum of 20 minutes in the onboard QStirrer. All experiments were performed at ambient temperature. Intracellular solution contained (mM): CsCl, 50; CsF, 90; MgCl2, 2; EGTA, 5; HEPES, 10; pH adjusted to 7.2 with CsOH. Extracellular solution contained (mM): NaCl, 137; KCl, 4; CaCl2), 3.8; MgCl2, 1; HEPES, 10; Glucose, 10; pH adjusted to 7.4 with NaOH. [LEFT OUT].
Compounds were tested in an interleaved manner across two cohorts of wells to develop an aggregate 8-point concentration response curve. Final concentrations include 0.1% DMSO and 0.03% pluronic Acid. In general, the concentration range spans a range from 0.01-300 nM. Compounds were diluted 1:10 with extracellular solution within their respective cohort. DMSO (0.1% by volume) served as a vehicle control to ascertain assay performance.
(§1) Whole cell patch clamp recordings were conducted according to Sophion standard procedure for QPatch II®. Cells were held at a holding potential of −120 mV. A depolarizing step to 10 mV for 30 ms was applied to elicit inward Na^+ currents. Inter-sweep interval was 15 sec. Following establishment of the whole-cell configuration in extracellular solution, cells were washed twice in extracellular solution containing 0.1% DMSO and 0.03% pluronic acid to stabilize the baseline current. Compounds were then applied by the QPatch II system into each well in an ascending manner within cohort and the current was recorded for five minutes for each concentration. Percent of current remaining was determined by taking the average of the last 5 sweeps within each concentration and normalizing to the latest pre-compound saline period. The potency (IC50) values of the compounds were only assessed against resting state block. Wells whose initial sodium current magnitude were below 2 nA or whole cell resistance fell below 100 MΩ were excluded from analysis.
as §1, with “MO” for “MΩ”, “analysis. […]” for “analysis.”

T1 sequence (Q9Y5Y9 whole entry): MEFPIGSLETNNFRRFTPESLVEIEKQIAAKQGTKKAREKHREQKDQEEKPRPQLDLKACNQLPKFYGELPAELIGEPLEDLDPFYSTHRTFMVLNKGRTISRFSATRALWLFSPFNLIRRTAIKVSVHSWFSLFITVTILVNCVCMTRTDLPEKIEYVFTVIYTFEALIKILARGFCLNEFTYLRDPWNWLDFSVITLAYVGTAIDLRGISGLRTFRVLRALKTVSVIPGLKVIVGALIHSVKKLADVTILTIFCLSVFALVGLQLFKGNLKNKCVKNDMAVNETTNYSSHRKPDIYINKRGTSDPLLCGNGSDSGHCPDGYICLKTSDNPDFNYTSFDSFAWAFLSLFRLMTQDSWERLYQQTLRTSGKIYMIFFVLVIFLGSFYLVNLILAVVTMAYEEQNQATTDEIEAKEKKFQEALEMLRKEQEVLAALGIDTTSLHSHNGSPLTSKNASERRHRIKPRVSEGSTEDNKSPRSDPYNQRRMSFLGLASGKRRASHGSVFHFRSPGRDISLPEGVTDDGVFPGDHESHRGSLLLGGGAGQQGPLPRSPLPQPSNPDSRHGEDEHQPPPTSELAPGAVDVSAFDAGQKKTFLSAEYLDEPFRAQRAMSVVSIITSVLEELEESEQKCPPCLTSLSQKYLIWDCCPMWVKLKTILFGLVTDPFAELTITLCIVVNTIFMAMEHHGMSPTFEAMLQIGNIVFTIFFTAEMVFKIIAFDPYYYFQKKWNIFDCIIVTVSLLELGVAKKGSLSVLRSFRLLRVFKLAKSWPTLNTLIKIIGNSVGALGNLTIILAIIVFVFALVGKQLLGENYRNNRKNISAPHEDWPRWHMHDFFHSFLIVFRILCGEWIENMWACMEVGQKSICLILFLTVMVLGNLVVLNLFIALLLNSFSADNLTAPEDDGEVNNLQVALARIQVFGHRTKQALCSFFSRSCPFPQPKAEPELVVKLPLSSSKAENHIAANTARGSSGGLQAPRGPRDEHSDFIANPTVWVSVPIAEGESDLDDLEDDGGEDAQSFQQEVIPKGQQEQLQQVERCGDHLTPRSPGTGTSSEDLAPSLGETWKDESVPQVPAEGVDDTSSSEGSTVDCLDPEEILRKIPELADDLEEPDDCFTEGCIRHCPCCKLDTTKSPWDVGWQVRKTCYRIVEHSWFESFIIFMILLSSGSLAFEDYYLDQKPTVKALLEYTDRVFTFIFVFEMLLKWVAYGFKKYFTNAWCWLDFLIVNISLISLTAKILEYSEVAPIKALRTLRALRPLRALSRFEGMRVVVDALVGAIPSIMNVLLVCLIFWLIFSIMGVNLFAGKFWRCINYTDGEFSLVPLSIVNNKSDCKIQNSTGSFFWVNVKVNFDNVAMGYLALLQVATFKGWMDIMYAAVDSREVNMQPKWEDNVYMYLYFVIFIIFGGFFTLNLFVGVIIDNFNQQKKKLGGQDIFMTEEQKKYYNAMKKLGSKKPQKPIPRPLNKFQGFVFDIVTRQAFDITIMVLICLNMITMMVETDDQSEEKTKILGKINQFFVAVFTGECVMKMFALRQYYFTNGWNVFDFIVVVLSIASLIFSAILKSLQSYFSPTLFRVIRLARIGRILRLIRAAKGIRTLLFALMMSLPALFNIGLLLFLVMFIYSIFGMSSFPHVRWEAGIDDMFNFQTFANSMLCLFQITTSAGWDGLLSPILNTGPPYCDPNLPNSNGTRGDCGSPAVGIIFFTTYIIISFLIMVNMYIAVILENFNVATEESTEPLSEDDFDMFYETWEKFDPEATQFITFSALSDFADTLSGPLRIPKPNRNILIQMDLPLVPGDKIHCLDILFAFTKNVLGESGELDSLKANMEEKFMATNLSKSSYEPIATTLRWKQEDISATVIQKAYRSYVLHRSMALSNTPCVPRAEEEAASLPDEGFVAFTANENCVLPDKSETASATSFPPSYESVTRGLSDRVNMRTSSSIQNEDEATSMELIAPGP
T1 sequence (Q07699 19-218 partner): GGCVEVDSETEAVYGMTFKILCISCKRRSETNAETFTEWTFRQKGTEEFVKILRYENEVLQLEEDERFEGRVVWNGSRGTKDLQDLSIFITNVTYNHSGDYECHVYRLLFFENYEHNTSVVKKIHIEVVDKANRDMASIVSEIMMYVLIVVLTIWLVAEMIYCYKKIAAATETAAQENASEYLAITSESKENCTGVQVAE

| Compound | IC50 |
| --- | --- |
| Cc1nc(F)ccc1Oc1ncc(C(F)(F)F)c(C)c1C(=O)Nc1ccc(F)c(S(C)(=O)=NCCN)c1 (stereo not shown) [Example 88C] | 5 to 50 nM |
| Cc1nc(F)ccc1Oc1ncc(C2CCCC2)c(C)c1C(=O)Nc1cccc([S@](C)(=N)=O)c1 [Example 87C] | 5 to 50 nM |
| Cc1nc(F)ccc1Oc1ncc(C(F)(F)F)c(C)c1C(=O)Nc1cccc(S(=N)(=O)CC(C)(C)N)c1 (stereo not shown) [Example 53C] | 5 to 50 nM |
| Cc1nc(F)ccc1Oc1nc(C(F)(F)F)c(Cl)cc1C(=O)Nc1ccnc([S@](C)(=N)=O)c1 [Example 81C] | > 200 nM |
| Cc1nc(F)ccc1Oc1ncc(C(F)(F)F)c(C)c1C(=O)Nc1cccc(S(=N)(=O)CCC(C)(C)O)c1 (stereo not shown) [Example 42C, 2-((6-fluoro-2-methylpyridin-3-yl)oxy)-N-(3-(3-hydroxy-3-methylbutylsulfonimidoyl)phenyl)-4-methyl-5-(trifluoromethyl)nicotinamide] | > 200 nM |
| Cc1nc(F)ccc1Oc1ncc(C(F)(F)F)c(C)c1C(=O)Nc1cccc([S@@](=N)(=O)CCN(C)C)c1 [Example 75C] | 5 to 50 nM |
| COc1cc(C#N)ccc1Oc1cc(C(F)(F)F)c(Cl)cc1C(=O)Nc1ccc(F)c([S@@](C)(=N)=O)c1 [Example 26A] | > 200 nM |
| Cc1nc(F)ccc1Oc1ncc(C(F)(F)F)c(C)c1C(=O)Nc1cncc([S@](C)(=N)=O)c1 [Example 61C] | 100 to 200 nM |
| Cc1cc(F)ccc1Oc1ncc(C(F)(F)F)c(C)c1C(=O)Nc1cccc(S(=N)(=O)CCCO)c1 (stereo not shown) [Example 54C] | 50 to 100 nM |
| Cc1nc(F)ccc1Oc1ccc(C(F)(F)F)c(Cl)c1C(=O)Nc1ccnc([S@](C)(=N)=O)c1 [Example 32A] | 5 to 50 nM |
| CNC(C)(C)CCS(=N)(=O)c1cccc(NC(=O)c2c(Oc3ccc(F)nc3C)ncc(C(F)(F)F)c2C)c1 (stereo not shown) [Example 50C] | 5 to 50 nM |
| Cc1nc(F)ccc1Oc1ncc(C2CCCC2)c(C)c1C(=O)Nc1ccnc([S@](C)(=N)=O)c1 [Example 86C] | 5 to 50 nM |
| CNCCS(=N)(=O)c1cccc(NC(=O)c2c(Oc3ccc(F)nc3C)ncc(C(F)(F)F)c2C)c1 (stereo not shown) [Example 78C] | 5 to 50 nM |
| CNC(C)(C)CS(=N)(=O)c1cccc(NC(=O)c2c(Oc3ccc(F)nc3C)ncc(C(F)(F)F)c2C)c1 (stereo not shown) [Example 51C] | 5 to 50 nM |
| CCC(N)(CC)CCS(=N)(=O)c1cccc(NC(=O)c2c(Oc3ccc(F)nc3C)ncc(C(F)(F)F)c2C)c1 (stereo not shown) [Example 41C, N-(3-(3-amino-3-ethylpentylsulfonimidoyl)phenyl)-2-((6-fluoro-2-methylpyridin-3-yl)oxy)-4-methyl-5-(trifluoromethyl)nicotinamide] | 5 to 50 nM |
| CC[S@@](=N)(=O)c1cccc(NC(=O)c2c(Oc3ccc(F)nc3C)ncc(C(F)(F)F)c2C)c1 [Example 82C] | 50 to 100 nM |
| Cc1nc(F)ccc1Oc1ncc(C(F)(F)F)c(C)c1C(=O)N[C@H]1C[C@@H](C(N)=O)C1 [Example 85C] | > 200 nM |
| Cc1nc(F)ccc1Oc1ncc(C(F)(F)F)c(C)c1C(=O)Nc1cccc([S@]2(=O)=NCCC2)c1 [Example 79C] | 5 to 50 nM |
| Cc1nc(F)ccc1Oc1ncc(C(F)(F)F)c(C)c1C(=O)Nc1cncc([S@@](C)(=N)=O)c1 [Example 62C] | > 200 nM |
| Cc1nc(F)ccc1Oc1ncc(C(F)(F)F)c(C)c1C(=O)Nc1cccc(S(=N)(=O)CCC(C)(C)N)c1 (stereo not shown) [Example 52C] | 5 to 50 nM |
| Cc1nc(F)ccc1Oc1ncc(C(F)(F)F)c(C)c1C(=O)N[C@H]1C[C@H](C(N)=O)C1 [Example 84C] | > 200 nM |
| COc1cc(C#N)ccc1Oc1cc(C(F)(F)F)c(Cl)cc1C(=O)Nc1cccc([S@@](C)(=N)=O)c1 [Example 25A] | > 200 nM |
| CNCCCS(=N)(=O)c1cccc(NC(=O)c2c(Oc3ccc(F)nc3C)ncc(C(F)(F)F)c2C)c1 (stereo not shown) [Example 74C] | 5 to 50 nM |
| Cc1nc(F)ccc1Oc1ncc(C(F)(F)F)c(C)c1C(=O)Nc1cccc([S@](=N)(=O)CCCO)c1 [Example 69C] | 100 to 200 nM |
| Cc1nc(F)ccc1Oc1cc(C(F)(F)F)c(Cl)cc1C(=O)Nc1ccnc(S(C)(=O)=O)c1 [Example 17A] | 5 to 50 nM |

Same assay, conditions: P1, resting state block; Nav1.8/β1 HEK293 cells, holding potential −120 mV; first set of compounds; read-out: P1 (IC50, resting state block)

| Compound | IC50 |
| --- | --- |
| Cc1cc(F)ncc1Oc1cc(C(F)(F)F)c(Cl)cc1C(=O)Nc1cccc([S@@](C)(=N)=O)c1 [Example 21A] | 100 to 200 nM |
| Cc1cc(F)ncc1Oc1cc(C(F)(F)F)c(Cl)cc1C(=O)Nc1ccnc([S@@](C)(=N)=O)c1 [Example 19A] | > 200 nM |
| COc1cc(Br)ccc1Oc1cc(C(F)(F)F)c(Cl)cc1C(=O)Nc1ccnc([S@](C)(=N)=O)c1 [Example 11A, (R)-2-(4-bromo-2-methoxyphenoxy)-5-chloro-N-(2-(S-methylsulfonimidoyl)pyridin-4-yl)-4-(trifluoromethyl)benzamide] | < 5 nM |
| Cc1nc(F)ccc1Oc1cc(C(F)(F)F)ccc1C(=O)Nc1ccnc([S@@](C)(=N)=O)c1 [Example 18A] | > 200 nM |
| Cc1cc(F)ncc1Oc1cc(C(F)(F)F)c(Cl)cc1C(=O)Nc1ccnc([S@](C)(=N)=O)c1 [Example 20A] | 100 to 200 nM |

Same assay, conditions: P1, resting state block; Nav1.8/β1 HEK293 cells, holding potential −120 mV; third set of compounds; read-out: P1 (IC50, resting state block)

| Compound | IC50 |
| --- | --- |
| CNCC[S@@](=N)(=O)c1cccc(NC(=O)c2c(Oc3ccc(F)nc3C)ncc(C(F)(F)F)c2C)c1 [Example 64C] | 5 to 50 nM |

These compounds were tested against T2, human Nav1.8/b3 (Homo sapiens, UniProt Q9Y5Y9) (assay: Compound Profiling Human NaV1.8/β3 Cell Line—SyncroPatch384PE Assay (automated patch clamp, stably transfected CHO cells)). Settings: P1 (IC50, resting state block), P1 measurement, resting state block; Nav1.8/b3 CHO cells, holding potential −120 mV; third set of compounds.
T2 construct: expressed in transfected cells; host or cells: CHO
Assay type: cell-based

T2 sequence (Q9Y5Y9 whole entry): as the sequence (Q9Y5Y9 whole entry) above
T2 sequence (Q9NY72 23-215 partner): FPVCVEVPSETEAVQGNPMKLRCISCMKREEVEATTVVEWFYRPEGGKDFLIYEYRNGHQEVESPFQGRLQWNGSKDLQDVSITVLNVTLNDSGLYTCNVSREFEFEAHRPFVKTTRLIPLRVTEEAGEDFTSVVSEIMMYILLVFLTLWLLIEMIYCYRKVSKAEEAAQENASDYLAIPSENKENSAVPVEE

| Compound | IC50 |
| --- | --- |
| Cc1nc(F)ccc1Oc1ncc(C(F)(F)F)c(C)c1C(=O)Nc1ccc(F)c(S(C)(=O)=NCCN)c1 (stereo not shown) [Example 88C] | < 5 nM |
| Cc1nc(F)ccc1Oc1ncc(C2CCCC2)c(C)c1C(=O)Nc1cccc([S@](C)(=N)=O)c1 [Example 87C] | 5 to 50 nM |
| Cc1nc(F)ccc1Oc1ncc(C2CCCC2)c(C)c1C(=O)Nc1ccnc([S@](C)(=N)=O)c1 [Example 86C] | 5 to 50 nM |

Same assay, conditions: P2 (IC50, inactivated state block), P2 measurement, inactivated state block; Nav1.8/b3 CHO cells, inactivation step −35 mV 10 sec; third set of compounds

| Compound | IC50 |
| --- | --- |
| Cc1nc(F)ccc1Oc1ncc(C(F)(F)F)c(C)c1C(=O)Nc1ccc(F)c(S(C)(=O)=NCCN)c1 (stereo not shown) [Example 88C] | < 5 nM |
| Cc1nc(F)ccc1Oc1ncc(C2CCCC2)c(C)c1C(=O)Nc1cccc([S@](C)(=N)=O)c1 [Example 87C] | 5 to 50 nM |
| Cc1nc(F)ccc1Oc1ncc(C2CCCC2)c(C)c1C(=O)Nc1ccnc([S@](C)(=N)=O)c1 [Example 86C] | 5 to 50 nM |
